Reference: patent publication US7776913B2, “Carnitines for treating or preventing disorders caused by andropause” (Sigma-Tau Industrie Farmaceutiche Riunite S.p.A., priority 2002, dated 2010)

Legend:
[1] = tested on: Patients aged over 60 years with lowered blood concentrations of free and total testosterone; test: Penile dynamic colour Doppler ultrasonography (PSV, EDV, RI of cavernous arteries); type: in vivo, human; details: mean ± SD
Excerpt: (§1) Reported here below is a clinical trial conducted in order to evaluate the activity of the combination according to the association in the treatment of the symptoms of male ageing.
(§2) Patients aged over 60 years with lowered blood concentrations of free and total testosterone (The Aging Male 4: 151-162, 2001) and complaining of symptoms figuring in the working definition of andropause proposed by the International Society for the Study of the Aging Male (I.S.S.A.M.) (The Aging Male 4: 151-162, 2001): reduced libido or sex drive and erectile function, depressed mood, difficulty concentrating, irritability and fatigue.
(§3) The above-mentioned compounds were presented to the patients in anonymous containers and administered for 6 months.
(§4) Medical history-taking and physical examinations were done for all patients. The following data were also collected prior to the start of treatment, after 1, 3 and 6 months of treatment: • 1. Total blood prostate-specific antigen (PSA) (ng/ml) as measured with the automatic test and monoclonal antibodies [Rigatti P., Scattoni V.: PSA: Antigene prostatico specifico. Edizioni Medico Scientifiche (EDIMES) Pavia, 1997]. • 2. Prostate volume (cm^3) as measured by suprapubic ultrasonography and calculated by means of the three diameters rule [Rigatti P. Scattoni V.: PSA: Antigene prostatico specifico. Edizioni Medico Scientifiche (EDIMES) Pavia, 1997]. • 3. Peak systolic volume (PSV) (cm/sec), end-diastolic velocity (EDV) (cm/sec), and Resistance Index (RI) (%) of the penile arteries (right and left cavernous e dorsal) as measured by means of penile basal and dynamic colour Doppler ultrasonography. RI was calculated as follows: (PSV-EDV/EDV)×100 (Urology 1997: 49: 822-830). • 4. Duration of full erections (in minutes) in the course of a recording period of three nights performed with Rigiscan. […] Free and total blood testosterone, LH and prolactin levels (The Aging Male 4: 151-162, 2001). • 6. Sexual function was checked by means of semistructured interviews and administration of the International Index of Erectile Function (IIEF-15) (Urology 1997: 49: 822-830). A score was calculated for each patient. • 7. Depression was quantified by means of the Hamilton Depression Scale questionnaire (DMS III) (Cancer 94: 2481-2489, 2002). A score was calculated for each patient. • 8. The subjective sensation of fatigue was calculated using the fatigue scale (Lison L.: Statistica applicata alla biologia sperimentale. Milano: Casa Editrice Ambrosiana, 1972). A score was calculated for each patient. • 9. Side effects.
(§5) Blood concentrations of PSA, free and total testosterone, prolactin LH, prostate volume, PSV, EDV, RI, full erection duration, IIEF-15, DMS III, and fatigue scale scores were compared between and within groups by means of factorial analysis of variance for randomised blocks (1 patient=1 block). Comparison of the mean values was done on the raw data with the exclusion of RI which used data subjected to angular transformation (sin^−1 √P/100) for the comparisons. Side effects were compared using the chi-square etst (Lison L.: Statistica applicata alla biologia sperimentale. Milano: Casa Editrice Ambrosiana, 1972).

[2] = tested on: patients in the andropause; details: 40×2 mg/day; cited from earlier work
[3] = tested on: Patients aged over 60 years with lowered blood concentrations of free and total testosterone; test: Blood levels of LH; type: in vivo, human; details: for LH: blood, mean ± SD
Excerpt: as §1, §2, §3, §4, §5

[4] = tested on: Patients aged over 60 years with lowered blood concentrations of free and total testosterone; test: International Index of Erectile Function questionnaire (IIEF-15); type: in vivo, human; details: for IIEF-15 Erectile Function section score / IIEF-15 General Satisfaction section score (Table 18 title) / IIEF-15 Intercourse Satisfaction section score / IIEF-15 Orgasmic Function section score (Table 17 title) / IIEF-15 Sexual Desire section score: mean ± SD
Excerpt: as §1, §2, §3, §4, §5

[5] = tested on: Patients aged over 60 years with lowered blood concentrations of free and total testosterone; test: Clinical trial overall: andropause symptoms and pathological changes of the cervico-urethral district; type: in vivo, human; details: unlike placebo
Excerpt: as §1
as §2, with “fatigue. […]” for “fatigue.”
Medical history-taking and physical examinations were done for all patients. […] Total blood prostate-specific antigen (PSA) (ng/ml) as measured with the automatic test and monoclonal antibodies [Rigatti P., Scattoni V.: PSA: Antigene prostatico specifico. […] Prostate volume (cm^3) as measured by suprapubic ultrasonography and calculated by means of the three diameters rule [Rigatti P. Scattoni V.: PSA: Antigene prostatico specifico. […] Peak systolic volume (PSV) (cm/sec), end-diastolic velocity (EDV) (cm/sec), and Resistance Index (RI) (%) of the penile arteries (right and left cavernous e dorsal) as measured by means of penile basal and dynamic colour Doppler ultrasonography. RI was calculated as follows: (PSV-EDV/EDV)×100 (Urology 1997: 49: 822-830). • 4. […]

[6] = tested on: Patients aged over 60 years with lowered blood concentrations of free and total testosterone; test: Prostate volume by suprapubic ultrasonography (three diameters rule); details: mean ± SD
Excerpt: as §1, §2, §3
Medical history-taking and physical examinations were done for all patients. The following data were also collected prior to the start of treatment, after 1, 3 and 6 months of treatment: • 1. Total blood prostate-specific antigen (PSA) (ng/ml) as measured with the automatic test and monoclonal antibodies [Rigatti P., Scattoni V.: PSA: Antigene prostatico specifico. Edizioni Medico Scientifiche (EDIMES) Pavia, 1997]. • 2. Prostate volume (cm^3) as measured by suprapubic ultrasonography and calculated by means of the three diameters rule [Rigatti P. Scattoni V.: PSA: Antigene prostatico specifico. […] Peak systolic volume (PSV) (cm/sec), end-diastolic velocity (EDV) (cm/sec), and Resistance Index (RI) (%) of the penile arteries (right and left cavernous e dorsal) as measured by means of penile basal and dynamic colour Doppler ultrasonography. RI was calculated as follows: (PSV-EDV/EDV)×100 (Urology 1997: 49: 822-830). • 4. […] A score was calculated for each patient. • 7. Depression was quantified by means of the Hamilton Depression Scale questionnaire (DMS III) (Cancer 94: 2481-2489, 2002). A score was calculated for each patient. • 8. The subjective sensation of fatigue was calculated using the fatigue scale (Lison L.: Statistica applicata alla biologia sperimentale. Milano: Casa Editrice Ambrosiana, 1972). A score was calculated for each patient. • 9. […]

testosterone undecaonate
Right cavernous artery EDV ([1]; 6 months of therapy): 7.9 ± 3.6 cm/s | Right cavernous artery PSV ([1]; 6 months of therapy): 33.7 ± 3.7 cm/sec | Left cavernous PSV ([1]; before therapy): 33.6 ± 3.7 cm/sec | Left cavernous artery EDV ([1]; before therapy): 7.7 ± 3.5 cm/s | Right cavernous artery EDV ([1]; before therapy): 7.8 ± 3.6 cm/s | Right cavernous artery PSV ([1]; before therapy): 33.2 ± 3.9 cm/sec | Benefit in patients in the andropause [2]: fair amount of benefit | Change in blood levels of LH (in words) ([3]; at 3 months, F=229 P<0.01): statistically significant reduction | Change in blood levels of LH (in words) ([3]; at 6 months): significant reduction | LH ([3]; 3 months of therapy): 4.3 ± 0.6 IU/l | LH ([3]; 6 months of therapy): 4.2 ± 1.2 IU/l | LH ([3]; before therapy): 8.9 ± 0.6 IU/l | IIEF-15 Erectile Function section score ([4]; 3 months of therapy): 16.7 ± 3.7 | IIEF-15 General Satisfaction section score (Table 18 title) ([4]; 3 months of therapy): 3.7 ± 1.1 | IIEF-15 Intercourse Satisfaction section score ([4]; 3 months of therapy): 4.8 ± 0.8 | IIEF-15 Orgasmic Function section score (Table 17 title) ([4]; 3 months of therapy): 3.9 ± 0.9 | IIEF-15 Sexual Desire section score ([4]; 3 months of therapy): 5.7 ± 0.8 | IIEF-15 Erectile Function section score ([4]; 6 months of therapy): 20.2 ± 5.3 | IIEF-15 General Satisfaction section score (Table 18 title) ([4]; 6 months of therapy): 4.4 ± 2.2 | IIEF-15 Intercourse Satisfaction section score ([4]; 6 months of therapy): 5.8 ± 1.9 | IIEF-15 Orgasmic Function section score (Table 17 title) ([4]; 6 months of therapy): 4.7 ± 1.8 | IIEF-15 Sexual Desire section score ([4]; 6 months of therapy): 7.1 ± 0.9 | Intercourse satisfaction (in words) ([4]; IIEF-15, Table 15): significantly increased | Sexual desire (in words) ([4]; IIEF-15, Table 16): significantly increased | Change in IIEF-15 Orgasmic Function scores (Table 18) ([4]; at 3 months, F=12.6, P<0.01): significantly increased | IIEF-15 Erectile Function section score ([4]; before therapy): 13.8 ± 2.7 | IIEF-15 General Satisfaction section score (Table 18 title) ([4]; before therapy): 3.2 ± 0.6 | IIEF-15 Intercourse Satisfaction section score ([4]; before therapy): 4.1 ± 0.8 | IIEF-15 Orgasmic Function section score (Table 17 title) ([4]; before therapy): 3.2 ± 1.2 | IIEF-15 Sexual Desire section score ([4]; before therapy): 4.3 ± 1.0 | Change in IIEF-15 Erectile Function scores (in words) ([4]; both at 3 months and 6 months): significant increase | Erectile activity (in words) ([4]; conclusion from Table 14): significantly increase | Change in IIEF-15 General Satisfaction scores (text on Table 17) ([4]; time not stated): failed to induce any significant changes | Effect on the symptoms of andropause [5]: capable of attenuating | Prostate volume ([6]; 3 months of therapy): 15.5 ± 3.0 cm^3 | Prostate volume ([6]; 6 months of therapy): 15.5 ± 2.6 cm^3 | Prostate volume ([6]; before therapy): 15.3 ± 2.8 cm^3
